Measurements taken from patent publication US20080234236A1, “REDUCTION OF ADVERSE EVENTS AFTER PERCUTANEOUS INTERVENTION BY USE OF A THROMBIN RECEPTOR ANTAGONIST” (priority 2007, published 2008).
“And” between values parts separate entries of the source, which are not always exact repeats. Equal entries are not always repeated.

Assays:
hERG = hERG (Homo sapiens, UniProt Q12809); experiment: hERG voltage clamp assay; type: cell-based
[1] = Phase 2 study (P03573): bleeding in secondary cohort undergoing CABG; type: in vivo, humans; settings: for Any bleed, patients (%) / Chest Tube Drainage / TIMI Major/Minor bleeding, patients (%) / Transfusion PRBC, patients (%) / non-TIMI bleeding, patients (%): secondary cohort (CABG treated)
Description: (§1) The behavior of SCH 530348 in humans was further studied in a Phase 2 clinical development program. A key safety issue for SCH 530348 is the potential for incremental bleeding when added to standard of care with other oral antiplatelet therapies as well as parenteral antithrombotics. Therefore, a single Phase 2 study (P03573) was completed to evaluate the safety of SCH 530348 in patients at high risk of bleeding events, i.e., those patients undergoing non-emergent PCI (percutaneous coronary intervention). The goals of this Phase 2 study were to: • Evaluate the safety of SCH 530348 in addition to standard of care with respect to TIMI major and minor bleeding; and, • Observe the effects of SCH 530348 on major adverse cardiac events (“MACE”) in patients successfully completing an interventional procedure.
The use of TIMI bleeding classification alone is of limited value and can be misleading in defining bleeding risk in patients undergoing CABG because of the routine use of packed red blood cell (“PRBC”) transfusions to prime the pump and extracorporeal oxygenator, and the resultant decline in hemoglobin that results from the administration of parenteral fluids during surgery. Therefore, other clinically meaningful measures (e.g., chest tube drainage, transfusions, need for re-exploration) were examined.

[2] = Phase 2 study (P03573): death, MACE and other clinical events in primary (PCI) cohort; type: in vivo, humans; settings: for Death/MACE, patients (%) / Death/MACE/Stroke, patients (%) / Death/MI, patients (%) / MACE, patients (%) / MI, patients (%) / Recurrent ischemia, patients (%) / Revascularization, patients (%) / Death, patients (%) / Stroke, patients (%): primary cohort (PCI); for Death/MACE, patients (%) / Death/MACE/Stroke, patients (%) / Death/MI, patients (%) / MACE, patients (%) / MI, patients (%) / Recurrent ischemia, patients (%) / Revascularization, patients (%): 60 days
Description: as §1
(§2) The primary endpoint (directed to evaluating safety) was the combined […] (“TIMI”) major and TIMI minor bleeding over sixty days in the primary evaluable cohort. Though the study was not powered to evaluate efficacy, a secondary endpoint (directed to evaluating efficacy) was the incidence of the composite of death and major adverse cardiac events (“MACE”) in the primary cohort. MACE includes myocardial infarction, urgent revascularization, and ischemia requiring hospitalization. Pharmacokinetics and pharmacodynamics were assessed at selected sites across the treatment groups. Other secondary endpoints included the incidence of TIMI major and minor bleeding in the secondary evaluable cohort i.e., those individuals who received the loading dose only.
Although the Phase 2 study was neither designed nor powered to assess efficacy, i.e., reduction of clinical event rates, there was a 31% relative reduction observed in the composite of death and major adverse cardiac events (MACE) at sixty days in the SCH 530348 group (5.9%) versus placebo (8.6%) in the primary cohort. This difference was not statistically significant. All clinical events were adjudicated by a blinded Clinical Events Committee.

[3] = Phase 2 study (P03573): bleeding in primary (PCI) cohort; type: in vivo, humans; settings: for non-TIMI bleeding: Arterial Access, patients (%) / non-TIMI bleeding: Contusion/Bruise, patients (%) / non-TIMI bleeding: Expistaxis, patients (%) / non-TIMI bleeding: GI, patients (%) / non-TIMI bleeding: Genitourinary, patients (%) / non-TIMI bleeding: Gingival, patients (%) / non-TIMI bleeding: Incidental Cuts, patients (%) / non-TIMI bleeding: Vascular Puncture, patients (%): primary PCI cohort; for Any bleed, patients (%) / TIMI Major bleeding, patients (%) / TIMI Major/Minor bleeding, patients (%) / non-TIMI bleeding (overall), patients (%) / TIMI Minor bleeding, patients (%): primary cohort (PCI), 60 days
Description: as §1, §2

[4] = Bleeding time by modified Ivy method; set-up: species or system humans; settings: in vivo
[5] = primary cohort, 40 mg loading dose

Sequence of hERG (Q12809 whole entry, the tested form may be a part): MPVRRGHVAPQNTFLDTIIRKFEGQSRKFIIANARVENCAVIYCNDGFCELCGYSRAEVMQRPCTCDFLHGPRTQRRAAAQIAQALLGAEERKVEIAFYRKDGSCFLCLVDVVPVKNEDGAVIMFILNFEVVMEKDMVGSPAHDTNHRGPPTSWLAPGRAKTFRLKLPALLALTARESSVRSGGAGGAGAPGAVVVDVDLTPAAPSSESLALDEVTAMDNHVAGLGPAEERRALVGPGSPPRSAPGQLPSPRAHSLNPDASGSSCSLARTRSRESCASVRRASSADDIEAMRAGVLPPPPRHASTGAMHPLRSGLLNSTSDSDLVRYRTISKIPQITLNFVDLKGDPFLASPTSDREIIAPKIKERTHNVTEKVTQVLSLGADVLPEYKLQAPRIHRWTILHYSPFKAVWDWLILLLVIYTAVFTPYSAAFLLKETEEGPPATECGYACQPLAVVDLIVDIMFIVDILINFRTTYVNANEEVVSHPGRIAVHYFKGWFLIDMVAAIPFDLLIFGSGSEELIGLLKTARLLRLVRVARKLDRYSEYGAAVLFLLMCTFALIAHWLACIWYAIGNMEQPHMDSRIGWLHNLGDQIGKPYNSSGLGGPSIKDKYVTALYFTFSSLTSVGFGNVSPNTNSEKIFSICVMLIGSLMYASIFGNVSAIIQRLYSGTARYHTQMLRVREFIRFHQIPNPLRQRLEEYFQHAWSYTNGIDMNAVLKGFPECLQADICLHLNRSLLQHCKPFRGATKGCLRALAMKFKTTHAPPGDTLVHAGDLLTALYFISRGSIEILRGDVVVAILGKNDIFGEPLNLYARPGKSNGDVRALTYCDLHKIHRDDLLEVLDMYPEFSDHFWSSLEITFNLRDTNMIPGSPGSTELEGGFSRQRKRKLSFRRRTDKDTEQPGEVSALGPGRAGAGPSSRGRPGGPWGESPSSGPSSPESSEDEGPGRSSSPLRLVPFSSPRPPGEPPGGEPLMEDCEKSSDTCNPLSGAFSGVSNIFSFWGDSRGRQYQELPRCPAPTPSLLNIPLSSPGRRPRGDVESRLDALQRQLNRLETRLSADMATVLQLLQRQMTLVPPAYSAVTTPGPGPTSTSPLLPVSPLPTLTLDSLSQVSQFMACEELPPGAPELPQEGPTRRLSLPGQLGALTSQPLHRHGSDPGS

CCOC(=O)N[C@@H]1CC[C@@H]2[C@@H](C1)C[C@H]1C(=O)O[C@H](C)[C@H]1[C@H]2/C=C/c1ccc(-c2cccc(F)c2)cn1.O=S(=O)(O)O [SCH 530348, ethyl [(1R,3aR,4aR,6R,8aR,9S,9aS)-9-[(E)-2-[5-(3-fluorophenyl)-2-pyridinyl]ethenyl]-dodecahydro-1-methyl-3-oxonaphtho[2,3-c]furan-6-yl] carbamate bisulfate]
IC50 (hERG): ~0.341 µM | Total chest tube drainage, proportion with >2 units PRBC transfusion, need for re-exploration versus placebo ([1]; patients who underwent CABG): no increase | Any bleed, patients (%) ([1]; 10 mg loading dose): 100% | Chest Tube Drainage ([1]; 10 mg loading dose): 1393 mL | TIMI Major/Minor bleeding, patients (%) ([1]; 10 mg loading dose): 90% | Transfusion PRBC, patients (%) ([1]; 10 mg loading dose): 80% | non-TIMI bleeding, patients (%) ([1]; 10 mg loading dose): 30% and 20% | Any bleed, patients (%) ([1]; 20 mg loading dose): 100% | Chest Tube Drainage ([1]; 20 mg loading dose): 1015 mL | TIMI Major/Minor bleeding, patients (%) ([1]; 20 mg loading dose): 94% | Transfusion PRBC, patients (%) ([1]; 20 mg loading dose): 50% | non-TIMI bleeding, patients (%) ([1]; 20 mg loading dose): 33% | Any bleed, patients (%) ([1]; 40 mg loading dose): 100% | Chest Tube Drainage ([1]; 40 mg loading dose): 870 mL | TIMI Major/Minor bleeding, patients (%) ([1]; 40 mg loading dose): 92% | Transfusion PRBC, patients (%) ([1]; 40 mg loading dose): 63% | non-TIMI bleeding, patients (%) ([1]; 40 mg loading dose): 39% | Any bleed, patients (%) ([1]; All SCH 530348): 100% | Chest Tube Drainage ([1]; All SCH 530348): 988 mL | TIMI Major/Minor bleeding, patients (%) ([1]; All SCH 530348): 94% and 92% | Transfusion PRBC, patients (%) ([1]; All SCH 530348): 62% | non-TIMI bleeding, patients (%) ([1]; All SCH 530348): 35% and 33% | Death/MACE, patients (%) ([2]; 10 mg loading dose): 8.5% | Death/MACE/Stroke, patients (%) ([2]; 10 mg loading dose): 9.3% | Death/MI, patients (%) ([2]; 10 mg loading dose): 5.4% | MACE, patients (%) ([2]; 10 mg loading dose): 8.5% | MI, patients (%) ([2]; 10 mg loading dose): 5.4% | Recurrent ischemia, patients (%) ([2]; 10 mg loading dose): 0.8% | Revascularization, patients (%) ([2]; 10 mg loading dose): 2.3% | Death/MACE, patients (%) ([2]; 20 mg loading dose): 5% | Death/MACE/Stroke, patients (%) ([2]; 20 mg loading dose): 5.0% | Death/MI, patients (%) ([2]; 20 mg loading dose): 4.2% | MACE, patients (%) ([2]; 20 mg loading dose): 5.0% | MI, patients (%) ([2]; 20 mg loading dose): 4.2% | Revascularization, patients (%) ([2]; 20 mg loading dose): 0.8% | Death/MACE, patients (%) ([2]; 40 mg loading dose): 4.6% | Death/MACE/Stroke, patients (%) ([2]; 40 mg loading dose): 4.6% | Death/MI, patients (%) ([2]; 40 mg loading dose): 4.0% | MACE, patients (%) ([2]; 40 mg loading dose): 4.0% | MI, patients (%) ([2]; 40 mg loading dose): 3.5% | Revascularization, patients (%) ([2]; 40 mg loading dose): 1.2% | Death/MACE, patients (%) ([2]; All SCH 530348): 5.9% | Death/MACE/Stroke, patients (%) ([2]; All SCH 530348): 6.2% | Death/MI, patients (%) ([2]; All SCH 530348): 4.5% | MACE, patients (%) ([2]; All SCH 530348): 5.7% | MI, patients (%) ([2]; All SCH 530348): 4.3% | Recurrent ischemia, patients (%) ([2]; All SCH 530348): 0.2% | Revascularization, patients (%) ([2]; All SCH 530348): 1.4% | Death, patients (%) ([2]; 10 mg loading dose): 0.8% | Stroke, patients (%) ([2]; 10 mg loading dose): 0.8% | Death, patients (%) ([2]; 40 mg loading dose): 0.6% | Death, patients (%) ([2]; All SCH 530348): 0.5% | Stroke, patients (%) ([2]; All SCH 530348): 0.2% | Reduction in MI versus placebo [2, 5]: 52% | Relative reduction in composite of death and MACE versus placebo [2, 5]: 47% | Relative reduction in composite of death and MACE at sixty days versus placebo ([2]; primary cohort, SCH 530348 group (all doses), not statistically significant): 31% | non-TIMI bleeding: Arterial Access, patients (%) ([3]; 10 mg loading dose): 11% | non-TIMI bleeding: Contusion/Bruise, patients (%) ([3]; 10 mg loading dose): 10% | non-TIMI bleeding: Expistaxis, patients (%) ([3]; 10 mg loading dose): 6% | non-TIMI bleeding: GI, patients (%) ([3]; 10 mg loading dose): 2 (2%) | non-TIMI bleeding: Genitourinary, patients (%) ([3]; 10 mg loading dose): 3% | non-TIMI bleeding: Gingival, patients (%) ([3]; 10 mg loading dose): 2 (2%) | non-TIMI bleeding: Incidental Cuts, patients (%) ([3]; 10 mg loading dose): 4% | non-TIMI bleeding: Vascular Puncture, patients (%) ([3]; 10 mg loading dose): 12% | non-TIMI bleeding: Arterial Access, patients (%) ([3]; 20 mg loading dose): 17% | non-TIMI bleeding: Contusion/Bruise, patients (%) ([3]; 20 mg loading dose): 17% | non-TIMI bleeding: Expistaxis, patients (%) ([3]; 20 mg loading dose): 5% | non-TIMI bleeding: GI, patients (%) ([3]; 20 mg loading dose): 1 (1%) | non-TIMI bleeding: Genitourinary, patients (%) ([3]; 20 mg loading dose): 5% | non-TIMI bleeding: Gingival, patients (%) ([3]; 20 mg loading dose): 1 (1%) | non-TIMI bleeding: Incidental Cuts, patients (%) ([3]; 20 mg loading dose): 13% | non-TIMI bleeding: Vascular Puncture, patients (%) ([3]; 20 mg loading dose): 18% | non-TIMI bleeding: Arterial Access, patients (%) ([3]; 40 mg loading dose): 14% | non-TIMI bleeding: Contusion/Bruise, patients (%) ([3]; 40 mg loading dose): 18% | non-TIMI bleeding: Expistaxis, patients (%) ([3]; 40 mg loading dose): 5% | non-TIMI bleeding: GI, patients (%) ([3]; 40 mg loading dose): 3% | non-TIMI bleeding: Genitourinary, patients (%) ([3]; 40 mg loading dose): 2% | non-TIMI bleeding: Gingival, patients (%) ([3]; 40 mg loading dose): 1% | non-TIMI bleeding: Incidental Cuts, patients (%) ([3]; 40 mg loading dose): 10% | non-TIMI bleeding: Vascular Puncture, patients (%) ([3]; 40 mg loading dose): 15% | non-TIMI bleeding: Arterial Access, patients (%) ([3]; All SCH 530348): 14% | non-TIMI bleeding: Contusion/Bruise, patients (%) ([3]; All SCH 530348): 15% | non-TIMI bleeding: Expistaxis, patients (%) ([3]; All SCH 530348): 5% | non-TIMI bleeding: GI, patients (%) ([3]; All SCH 530348): 2% | non-TIMI bleeding: Genitourinary, patients (%) ([3]; All SCH 530348): 3% | non-TIMI bleeding: Gingival, patients (%) ([3]; All SCH 530348): 1% | non-TIMI bleeding: Incidental Cuts, patients (%) ([3]; All SCH 530348): 9% | non-TIMI bleeding: Vascular Puncture, patients (%) ([3]; All SCH 530348): 15% | Any bleed, patients (%) ([3]; 10 mg loading dose): 37% | TIMI Major bleeding, patients (%) ([3]; 10 mg loading dose): 1.6% | TIMI Major/Minor bleeding, patients (%) ([3]; 10 mg loading dose): 1.6% | non-TIMI bleeding (overall), patients (%) ([3]; 10 mg loading dose): 36% | Any bleed, patients (%) ([3]; 20 mg loading dose): 43% | TIMI Major/Minor bleeding, patients (%) ([3]; 20 mg loading dose): 2.5% | TIMI Minor bleeding, patients (%) ([3]; 20 mg loading dose): 2.5% | non-TIMI bleeding (overall), patients (%) ([3]; 20 mg loading dose): 43% | Any bleed, patients (%) ([3]; 40 mg loading dose): 45% | TIMI Major bleeding, patients (%) ([3]; 40 mg loading dose): 0.6% | TIMI Major/Minor bleeding, patients (%) ([3]; 40 mg loading dose): 4.0% | TIMI Minor bleeding, patients (%) ([3]; 40 mg loading dose): 3.4% | non-TIMI bleeding (overall), patients (%) ([3]; 40 mg loading dose): 42% and 43% | Any bleed, patients (%) ([3]; All SCH 530348): 42% | TIMI Major bleeding, patients (%) ([3]; All SCH 530348): 0.7% | TIMI Minor bleeding, patients (%) ([3]; All SCH 530348): 2.1% | non-TIMI bleeding (overall), patients (%) ([3]; All SCH 530348): 41% and 40% | TIMI Major/Minor bleeding, patients (%) ([3]; All SCH 530348, primary safety endpoint): 2.8% | Increasing bleeding time as measured by a modified Ivy method [4]: without
